Experimental data published in PubChem BioAssay (NCI).
Where “and” joins values, the source holds several entries; their conditions need not be identical. Equal values may be shown once.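 A five-concentration, 48-hour dose response in 96-well plates underlies each endpoint, interpolated linearly between surrounding concentrations. The concentration for 50% growth inhibition is given as GI50. TGI: concentration producing complete growth inhibition.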

Key:
Assay in all cases: growth of human tumour cells (NCI), 48 h
HCC-2998 colon = system: HCC-2998 colon
EKVX NSCLC = system: EKVX NSCLC
SK-MEL-2 melanoma = system: SK-MEL-2 melanoma
HOP-92 NSCLC = system: HOP-92 NSCLC
SK-MEL-5 melanoma = system: SK-MEL-5 melanoma
NCI/ADR-RES ovarian = system: NCI/ADR-RES ovarian
786-0 renal = system: 786-0 renal
HCT-116 colon = system: HCT-116 colon
UACC-257 melanoma = system: UACC-257 melanoma
BT-549 breast = system: BT-549 breast
SK-MEL-28 melanoma = system: SK-MEL-28 melanoma
SR leukemia = system: SR leukemia
OVCAR-4 ovarian = system: OVCAR-4 ovarian
M14 melanoma = system: M14 melanoma
SN12C renal = system: SN12C renal
UO-31 renal = system: UO-31 renal
HL-60(TB) leukemia = system: HL-60(TB) leukemia
K-562 leukemia = system: K-562 leukemia
OVCAR-3 ovarian = system: OVCAR-3 ovarian
UACC-62 melanoma = system: UACC-62 melanoma
SF-295 CNS = system: SF-295 CNS
SW-620 colon = system: SW-620 colon
SNB-75 CNS = system: SNB-75 CNS
MDA-MB-435 = system: MDA-MB-435
RPMI-8226 leukemia = system: RPMI-8226 leukemia
MOLT-4 leukemia = system: MOLT-4 leukemia
HS 578T breast = system: HS 578T breast
U251 CNS = system: U251 CNS
MALME-3M melanoma = system: MALME-3M melanoma
MCF7 breast = system: MCF7 breast
COLO 205 colon = system: COLO 205 colon
ACHN renal = system: ACHN renal
HT29 colon = system: HT29 colon
SK-OV-3 ovarian = system: SK-OV-3 ovarian
HOP-62 NSCLC = system: HOP-62 NSCLC
CCRF-CEM leukemia = system: CCRF-CEM leukemia
NCI-H226 lung = system: NCI-H226 lung
RXF 393 renal = system: RXF 393 renal
IGROV1 ovarian = system: IGROV1 ovarian
NCI-H460 lung = system: NCI-H460 lung
LOX IMVI melanoma = system: LOX IMVI melanoma
TK-10 renal = system: TK-10 renal
SF-539 CNS = system: SF-539 CNS
MDA-MB-231 breast = system: MDA-MB-231 breast
DU-145 prostate = system: DU-145 prostate
A498 renal = system: A498 renal
NCI-H522 lung = system: NCI-H522 lung
OVCAR-8 ovarian = system: OVCAR-8 ovarian
KM12 colon = system: KM12 colon
PC-3 prostate = system: PC-3 prostate
SNB-19 CNS = system: SNB-19 CNS
SF-268 CNS = system: SF-268 CNS
NCI-H23 lung = system: NCI-H23 lung
OVCAR-5 ovarian = system: OVCAR-5 ovarian
HCT-15 colon = system: HCT-15 colon
A549 NSCLC = system: A549 NSCLC
T-47D breast = system: T-47D breast
CAKI-1 renal = system: CAKI-1 renal

For `CC(C)Nc1cc(-c2c[nH]c(C(=O)N[C@H](CO)c3cccc(Cl)c3)c2)c(Cl)cn1`, the GI50 (HCC-2998 colon) was 0.19 µM and 0.209 µM, the TGI (HCC-2998 colon) was 13.8 µM and > 10 µM and the GI50 (EKVX NSCLC) was 1.97 µM and 0.783 µM. The TGI (EKVX NSCLC) was 15.4 µM and > 10 µM, the GI50 (SK-MEL-2 melanoma) was 0.18 µM and 0.179 µM and the TGI (SK-MEL-2 melanoma) was 0.75 µM and 1.41 µM. For the same compound, the GI50 (HOP-92 NSCLC) was 0.312 µM and 0.233 µM, the TGI (HOP-92 NSCLC) was 2.84 µM and 1.81 µM and the GI50 (SK-MEL-5 melanoma) was 0.64 µM and 0.752 µM. The TGI (SK-MEL-5 melanoma) was 7.82 µM and 9.83 µM, the GI50 (NCI/ADR-RES ovarian) was 5.57 µM and > 7.85 µM and the TGI (NCI/ADR-RES ovarian) was 24.4 µM and > 10 µM. For the same compound, the GI50 (786-0 renal) was 2.85 µM and 3.23 µM, the TGI (786-0 renal) was 18.3 µM and > 10 µM and the GI50 (HCT-116 colon) was 0.154 µM and 0.162 µM. The TGI (HCT-116 colon) was 11.4 µM and > 10 µM, the GI50 (UACC-257 melanoma) was 0.0732 µM and the TGI (UACC-257 melanoma) was 0.519 µM. For the same compound, the GI50 (BT-549 breast) was 3.19 µM and > 5.25 µM, the TGI (BT-549 breast) was 15.7 µM and > 10 µM and the GI50 (SK-MEL-28 melanoma) was 0.126 µM and 0.0718 µM. The GI50 (SR leukemia) was 3.38 µM and 3.66 µM, the TGI (SR leukemia) was 40.5 µM and > 10 µM and the GI50 (OVCAR-4 ovarian) was 3.68 µM and > 6.63 µM. For the same compound, the TGI (OVCAR-4 ovarian) was 20.7 µM and > 10 µM, the GI50 (M14 melanoma) was 0.101 µM and the TGI (M14 melanoma) was greater than 2.58 µM. For the same compound, the GI50 (SN12C renal) was 4.04 µM and > 4.03 µM, the TGI (SN12C renal) was 20.9 µM and > 10 µM and the GI50 (UO-31 renal) was 0.986 µM and 0.838 µM. For the same compound, the TGI (UO-31 renal) was 14.5 µM and > 10 µM, the GI50 (HL-60(TB) leukemia) was 0.378 µM and 0.272 µM and the TGI (HL-60(TB) leukemia) was 4.67 µM and > 10 µM. The GI50 (K-562 leukemia) was 3.35 µM, the TGI (K-562 leukemia) was greater than 10 µM and the GI50 (OVCAR-3 ovarian) was 4.66 µM and > 9.46 µM. For the same compound, the TGI (OVCAR-3 ovarian) was 18.8 µM and > 10 µM, the GI50 (UACC-62 melanoma) was 0.0826 µM and 0.13 µM and the TGI (UACC-62 melanoma) was 12.3 µM and > 10 µM. The GI50 (SF-295 CNS) was 4.22 µM and > 8.07 µM, the TGI (SF-295 CNS) was 18.1 µM and > 10 µM and the GI50 (SW-620 colon) was 0.249 µM and 0.296 µM. For the same compound, the TGI (SW-620 colon) was 16.7 µM and > 10 µM, the GI50 (SNB-75 CNS) was 4.5 µM and > 5.45 µM and the TGI (SNB-75 CNS) was 19.8 µM and > 10 µM. The GI50 (MDA-MB-435) was 0.312 µM and 0.335 µM, the TGI (MDA-MB-435) was 14.9 µM and > 10 µM and the GI50 (RPMI-8226 leukemia) was 3.09 µM and 1.14 µM. For the same compound, the TGI (RPMI-8226 leukemia) was 45.9 µM and > 10 µM, the GI50 (MOLT-4 leukemia) was 2.55 µM and 2.57 µM and the TGI (MOLT-4 leukemia) was 19.6 µM and > 10 µM. The GI50 (HS 578T breast) was 4.32 µM and > 9.06 µM, the TGI (HS 578T breast) was 60.5 µM and > 10 µM and the GI50 (U251 CNS) was 1.71 µM and 1.09 µM. For the same compound, the TGI (U251 CNS) was 18 µM and > 10 µM, the GI50 (MALME-3M melanoma) was 0.0249 µM and 0.0475 µM and the TGI (MALME-3M melanoma) was 0.149 µM. For the same compound, the GI50 (MCF7 breast) was 2.16 µM and 1.62 µM, the TGI (MCF7 breast) was 19.1 µM and > 10 µM and the GI50 (COLO 205 colon) was 0.104 µM and 0.076 µM. For the same compound, the TGI (COLO 205 colon) was 3.06 µM and 1.59 µM, the GI50 (ACHN renal) was 2.24 µM and 2.08 µM and the TGI (ACHN renal) was 14.9 µM and > 10 µM. The GI50 (HT29 colon) was 0.0894 µM and 0.0951 µM, the TGI (HT29 colon) was 11.6 µM and > 10 µM and the GI50 (SK-OV-3 ovarian) was 3.23 µM and > 7.67 µM. For the same compound, the TGI (SK-OV-3 ovarian) was 18 µM and > 10 µM, the GI50 (HOP-62 NSCLC) was 3.93 µM and 0.479 µM and the TGI (HOP-62 NSCLC) was 26.4 µM and > 10 µM. For the same compound, the GI50 (CCRF-CEM leukemia) was 4.09 µM and 4.7 µM, the TGI (CCRF-CEM leukemia) was greater than 100 µM and the GI50 (NCI-H226 lung) was 3.17 µM and > 3.67 µM. The TGI (NCI-H226 lung) was 24.2 µM and > 10 µM, the GI50 (RXF 393 renal) was 2.14 µM and 1.06 µM and the TGI (RXF 393 renal) was 15 µM and > 10 µM. For the same compound, the GI50 (IGROV1 ovarian) was 0.516 µM and 0.366 µM, the TGI (IGROV1 ovarian) was 20.5 µM and > 10 µM and the GI50 (NCI-H460 lung) was 1.35 µM and 1.05 µM. For the same compound, the TGI (NCI-H460 lung) was 15.8 µM and > 10 µM, the GI50 (LOX IMVI melanoma) was 0.157 µM and 0.316 µM and the TGI (LOX IMVI melanoma) was 12.8 µM and > 10 µM. For the same compound, the GI50 (TK-10 renal) was 0.795 µM and 0.36 µM, the TGI (TK-10 renal) was 18.6 µM and > 10 µM and the GI50 (SF-539 CNS) was 6.04 µM. The TGI (SF-539 CNS) was 20.2 µM and > 10 µM, the GI50 (MDA-MB-231 breast) was 1.67 µM and 1.02 µM and the TGI (MDA-MB-231 breast) was 13.6 µM and > 8.38 µM. For the same compound, the GI50 (DU-145 prostate) was 5.96 µM and 9.49 µM, the TGI (DU-145 prostate) was 20.4 µM and > 10 µM and the GI50 (A498 renal) was 0.084 µM and 0.255 µM. For the same compound, the TGI (A498 renal) was 1.41 µM and 1.95 µM, the GI50 (NCI-H522 lung) was 2.33 µM and 2.35 µM and the TGI (NCI-H522 lung) was 19.8 µM and > 10 µM. For the same compound, the GI50 (OVCAR-8 ovarian) was 7.75 µM and 8.82 µM, the TGI (OVCAR-8 ovarian) was 24.3 µM and > 10 µM and the GI50 (KM12 colon) was 0.751 µM and 0.444 µM. The TGI (KM12 colon) was 15.5 µM and > 10 µM, the GI50 (PC-3 prostate) was 3.96 µM and > 5.54 µM and the TGI (PC-3 prostate) was 18.4 µM and > 10 µM. The GI50 (SNB-19 CNS) was 4.84 µM, the TGI (SNB-19 CNS) was 20.6 µM and > 10 µM and the GI50 (SF-268 CNS) was 4.46 µM and > 7.71 µM. For the same compound, the TGI (SF-268 CNS) was 24.5 µM and > 10 µM, the GI50 (NCI-H23 lung) was 0.308 µM and 0.258 µM and the TGI (NCI-H23 lung) was 16 µM and > 10 µM. The GI50 (OVCAR-5 ovarian) was 0.259 µM and 0.187 µM, the TGI (OVCAR-5 ovarian) was 16.2 µM and > 10 µM and the GI50 (HCT-15 colon) was 2.89 µM and 2.68 µM. The TGI (HCT-15 colon) was 14.4 µM and > 10 µM, the GI50 (A549 NSCLC) was 2.33 µM and 0.919 µM and the TGI (A549 NSCLC) was 20.3 µM and > 10 µM. For the same compound, the GI50 (T-47D breast) was 1.77 µM and > 5.23 µM, the TGI (T-47D breast) was 16.8 µM and > 10 µM and the GI50 (CAKI-1 renal) was 1.17 µM and 1.87 µM. For the same compound, the TGI (CAKI-1 renal) was 19.1 µM and > 10 µM.
